According to patent US20080274121A1, “Inhibition of Angiogenesis by Mithramycin” (priority 2007, published 2008):

Experiments:
H727 cells = assay: Viable cell count in vitro, H727; format: cell-based, human; conditions: 0 to 100 μg/ml BVZ, 5 days
Description: (§1) FIG. 18. Effects of treatment with BVZ and MIT on the growth of and gene expression in human carcinoid cells in vitro. A. H727 and BON-1 cells were incubated for 5 days in a medium alone or a medium containing 25 to 100 μg/ml BVZ. The viable cells were counted. B. H727 cells were incubated for 5 days in a medium alone or a medium containing 100 μg/ml BVZ. Total protein lysates were harvested from the cell cultures, and the level of Sp1 and VEGF protein expression was determined using Western blot analysis. Equal protein-sample loading was monitored by probing the same membrane filter with an anti-GAPDH. C. H727 and BON-1 cells were treated with MIT at concentrations ranging from 0.1 to 2.5 μM for 24 hours. Cytotoxicity was assessed using the MTT assay.
Effects of treatment with BVZ and MIT on the growth of and gene expression in human LGNET cells. To further determine whether treatment with BVZ directly impacts gene expression in LGNET cells, we incubated H727 and BON-1 cells in a medium alone or a medium containing 0 to 100 μg/ml BVZ for 5 days.

PANC-1 cells = PANC-1 cells injected into the pancreas, survival and metastasis; format: in vivo, nude mice; conditions: BVZ 25 μg, MIT 0.10 mg/kg, or B+M; compared with PBS
Description: FIG. 12. Prolonged survival of mice that received treatment with BVZ and MIT in xenograft models of human pancreatic cancer. PANC-1 cells were injected into the pancreas of nude mice (17 to 20 mice/group). The mice received treatment as described in FIG. 2. The entire experiment was terminated 120 days after tumor-cell injection. A, animal survival was monitored daily until termination of the experiment. Cum, cumulative. B, tumor growth in the pancreas and metastasis in the liver and/or other organs were evaluated and expressed as the incidence (%).
Statistical analysis. Each experiment was performed independently at least twice with similar results; one representative experiment is presented. The significance of the in vitro data was determined using Student's t-test (two-tailed), whereas the significance of the in vivo data was determined using the two-tailed Mann-Whitney U test. For the in vivo experiments, overall survival was calculated by the method of Kaplan and Meier. Log rank test was used to compare the survival duration between groups. P≦0.05 was deemed significant.
Prolonged survival of xenograft models of human pancreatic cancer that received treatment with BVZ and MIT.

BON-1 cells = assay: BON-1 carcinoid subcutaneous xenograft
Description: H727 and BON-1 cells were injected into the subcutis of nude mice (n=5). When tumors reached around 4 mm in diameter, the animals received different doses of MIT (0.10 [M-10], 0.20 [M-20], and 0.40 [M-40] mg/kg) via intraperitoneal injection twice a week. Tumors were measured once every week, and at each measurement, the mean±standard deviation (SD) tumor volume in the five mice in each group was calculated (A).
H727 and BON-1 cells were injected subcutaneously into nude mice. […] A. Tumors were measured once every week, and at each measurement, the mean±SD tumor volume in the five mice in each group was calculated. B. Mouse body weights were measured. The asterisks indicate the statistical significance (P<0.01) in a comparison between the treated and respective control groups.
Mithramycin-A (MIT, 1 mg/vial crystal powder; lot 055K4011) was purchased from Sigma Chemical Co. (St. Louis, Mo.) and diluted in sterile water. BVZ (25 mg/ml; NDC 50242-060-01) from Genentech, Inc. (South San Francisco, Calif.) was purchased. For animal experiments, MIT (0.1 to 0.4 mg/kg body weight) and BVZ (25 to 100 μg/mouse) were administered by intraperitoneal or subcutaneous injections twice a week or as otherwise stated.
Female athymic BALB/c nude mice were purchased from The Jackson Laboratory (Bar Harbor, Me.). The mice were housed in laminar flow cabinets under specific pathogen-free conditions and used when they were 8 weeks old.
H727 and BON-1 tumor cells were injected into the subcutis of mice as described in the Materials and Methods. […] Moreover, the residual tumors were harvested and angiogenesis was assessed by CD31 staining.
Synergistic antitumor effects of BVZ and MIT in human LGNET model. […] To test this hypothesis, we determined whether modulating Sp1 expression and/or activity impacts the efficacy of anti-angiogenic treatment of BVZ. […]
H727 and BON-1 cells were injected subcutaneously into nude mice and then administered treatment to them as described in FIG. 20. We monitored animal survival daily until termination of the experiment 160 days after tumor-cell injection.

[1] = system: Sp1, VEGF, EGFR and PDGFA expression; assay: Expression of Sp1 and downstream molecules in H727 cells in vitro (Western/Northern blot); format: cell-based, human; conditions: 100 μg/ml BVZ, 5 days
Description: FIG. 16. […] H727 cells were incubated in medium or medium containing 0.36 μM MIT for 24 hours. mRNA was extracted for Northern blot analysis of Sp1 expression (A1). H727 and BON-1 cells were incubated in medium or medium containing 0-0.36 μM MIT for 1 to 24 hours. […] B. Chromatin was prepared from the cells and ChIP assay was performed as described in Materials and Methods.
as §1, with “H727 and BON-1 cells were treated with MIT at concentrations ranging from 0.1 to 2.5 μM for 24 hours.” left out
Western blot analysis. […] Equal protein-sample loading was monitored by probing the same membrane filter with an antibody against glyceraldehyde-3-phosphate dehydrogenase (GAPDH) (21). The probe proteins were detected using the Amersham enhanced chemiluminescence system according to the manufacturer's instructions. […]

[2] = system: Sp1, EGFR, and VEGF protein expression; assay: Western blot of gene expression in PANC-1 cells in vitro; format: cell-based, human; conditions: 100 μg/ml BVZ, 6 to 48 hours
Description: FIG. 14. Effects of treatment with BVZ and MIT on the growth of and gene expression in human pancreatic cancer cells in vitro. (A) BxPC3 and (B) PANC-1 cells were incubated for 1 to 5 days in a medium alone or a medium containing 100 μg/ml BVZ. The viable cells were counted every 24 hours. C, PANC-1 cells were incubated for 6 to 48 hours in a medium alone or a medium containing 100 μg/ml BVZ. Total protein lysates were harvested from the cell cultures, and the level of Sp1, EGFR, and VEGF protein expression was determined using Western blot analysis. Equal protein-sample loading was monitored by probing the same membrane filter with an anti-glyceraldehyde-3-phosphate dehydrogenase antibody (GAPDH). […] (D) Cytotoxicity was assessed using the MTT assay, and (E) the level of gene expression was determined using Western blot analysis. NS, nonspecific.
Western blot analysis. Whole-cell lysates were prepared from human pancreatic cancer cell lines and tissues (23). […] Equal protein-sample loading was monitored by probing the same membrane filter with antibodies against anti-β-actin or glyceraldehyde-3-phosphate dehydrogenase (GAPDH) (23). The probe proteins were detected using the Amersham enhanced chemiluminescence system according to the manufacturer's instructions. […]

bevacizumab [BVZ]
cell growth in vitro (H727 cells): did not affect the growth
animal survival (PANC-1 cells): slightly increased survival rate
antitumor activity at low dose (BON-1 cells; BVZ 25 μg, MIT 0.10 mg/kg, alone or combined, i.p. twice a week): marginal antitumor activity
body weight (BON-1 cells; BVZ alone): no discernable effects on body weight
animal survival (BON-1 cells; compared with PBS, 160 days): slightly increased survival rate
expression of Sp1 and VEGF [1]: did not affect the expression of Sp1 or its major downstream molecule, VEGF
expression of Sp1, VEGF and EGFR [2]: did not affect the expression of Sp1 or its major downstream molecules
